Source: publication PMC2099433, “The binding site for neohesperidin dihydrochalcone at the human sweet taste receptor” (BMC Structural Biology, 2007)
Where a SMILES comes first, the peptide text is derived from it.

Molecular target: T1, hTAS1R2 + hTAS1R3 H734A^5.47 (Homo sapiens, UniProt Q7RTX0+Q8TE23, H734A)
T1 construct: expressed in transfected cells; host or cells: HEK293T cells stably expressing G16Gust44
T1 sequence (Q8TE23 20-839): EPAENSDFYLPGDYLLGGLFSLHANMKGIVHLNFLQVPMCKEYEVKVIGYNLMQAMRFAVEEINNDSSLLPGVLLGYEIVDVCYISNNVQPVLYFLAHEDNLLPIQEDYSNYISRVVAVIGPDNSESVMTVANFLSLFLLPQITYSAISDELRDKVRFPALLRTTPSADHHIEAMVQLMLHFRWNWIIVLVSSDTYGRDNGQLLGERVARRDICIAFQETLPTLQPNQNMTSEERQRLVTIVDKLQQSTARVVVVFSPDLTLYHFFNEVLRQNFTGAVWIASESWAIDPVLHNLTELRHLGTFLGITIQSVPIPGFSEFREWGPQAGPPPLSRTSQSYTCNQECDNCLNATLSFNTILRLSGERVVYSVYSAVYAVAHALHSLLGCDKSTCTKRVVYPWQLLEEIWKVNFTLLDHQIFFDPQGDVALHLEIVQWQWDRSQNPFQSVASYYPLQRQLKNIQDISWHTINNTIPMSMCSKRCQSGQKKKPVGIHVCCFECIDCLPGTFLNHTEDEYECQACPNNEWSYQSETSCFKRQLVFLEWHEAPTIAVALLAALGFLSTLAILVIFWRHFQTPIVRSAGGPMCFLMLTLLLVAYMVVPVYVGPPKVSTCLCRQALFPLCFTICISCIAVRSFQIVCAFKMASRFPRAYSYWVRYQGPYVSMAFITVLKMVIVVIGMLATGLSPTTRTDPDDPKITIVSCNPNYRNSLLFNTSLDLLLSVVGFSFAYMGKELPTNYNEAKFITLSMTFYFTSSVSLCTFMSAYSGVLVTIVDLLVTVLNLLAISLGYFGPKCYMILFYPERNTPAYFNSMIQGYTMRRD
T1 sequence (Q7RTX0 21-852 H734A): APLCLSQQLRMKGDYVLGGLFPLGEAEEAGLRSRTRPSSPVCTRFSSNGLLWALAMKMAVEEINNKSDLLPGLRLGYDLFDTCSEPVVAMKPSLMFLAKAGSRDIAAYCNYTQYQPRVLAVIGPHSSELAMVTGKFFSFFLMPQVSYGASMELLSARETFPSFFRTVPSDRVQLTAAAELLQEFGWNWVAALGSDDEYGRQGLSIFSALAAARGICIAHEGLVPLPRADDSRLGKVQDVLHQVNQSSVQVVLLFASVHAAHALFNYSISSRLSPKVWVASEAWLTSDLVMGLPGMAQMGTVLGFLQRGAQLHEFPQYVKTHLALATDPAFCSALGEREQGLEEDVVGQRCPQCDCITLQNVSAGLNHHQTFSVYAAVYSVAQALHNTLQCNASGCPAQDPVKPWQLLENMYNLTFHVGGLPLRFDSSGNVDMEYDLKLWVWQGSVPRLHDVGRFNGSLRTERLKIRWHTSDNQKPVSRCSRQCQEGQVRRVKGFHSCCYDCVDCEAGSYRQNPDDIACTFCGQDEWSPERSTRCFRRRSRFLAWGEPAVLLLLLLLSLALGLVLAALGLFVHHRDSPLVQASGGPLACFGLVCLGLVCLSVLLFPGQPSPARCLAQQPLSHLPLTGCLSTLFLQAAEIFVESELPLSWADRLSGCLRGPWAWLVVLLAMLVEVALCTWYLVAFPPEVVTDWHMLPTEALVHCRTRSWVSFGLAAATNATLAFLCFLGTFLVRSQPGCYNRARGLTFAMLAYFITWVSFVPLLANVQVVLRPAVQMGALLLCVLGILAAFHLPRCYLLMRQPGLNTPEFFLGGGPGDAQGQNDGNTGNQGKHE
Experiment: Calcium response (FLIPR), hTAS1R3 mutant coexpressed with hTAS1R2
Format: cell-based
Settings: for receptor response: mutant H734A^5.47; for EC50: variant H734A^5.47, n.f. = no response to any tested sweetener
Procedure, shortened: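 Each mutant receptor pair was expressed transiently in G16Gust44-expressing HEK293T cells; stimuli dissolved in C1 solution triggered calcium responses, recorded by fluorometric imaging and scaled to baseline fluorescence (ΔF/F) after mock correction, from at least three experiments run in duplicate.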

| receptor response | EC50 | SMILES |
| --- | --- | --- |
| did not respond | n.f. | COc1ccc(CCC(=O)c2c(O)cc(O[C@@H]3O[C@H](CO)[C@@H](O)[C@H](O)[C@H]3O[C@@H]3O[C@@H](C)[C@H](O)[C@@H](O)[C@H]3O)cc2O)cc1O [NHDC, neohesperidin dihydrochalcone] |
| did not respond |  | CC1=CC(=O)NS(=O)(=O)O1 [acesulfame K] |
| did not respond | n.f. | COC(=O)[C@H](Cc1ccccc1)NC(=O)[C@@H](N)CC(=O)O [aspartame] (HELM PEPTIDE1{D.F.[CO[*:1]]}$$$$V2.0) |
| did not respond |  | O=S(=O)(O)NC1CCCCC1 [cyclamate] |
